Key:
[1] = target: prostaglandin E receptor EP4 (Homo sapiens, UniProt P35408); assay: inhibition of 3H-PGE2 radioligand binding; format: cell-based
[2] = target: prostaglandin E receptor EP2 (Homo sapiens, UniProt P43116); assay: inhibition of 3H-PGE2 radioligand binding; format: cell-based
Sequence of prostaglandin E receptor EP2 (P43116 whole entry): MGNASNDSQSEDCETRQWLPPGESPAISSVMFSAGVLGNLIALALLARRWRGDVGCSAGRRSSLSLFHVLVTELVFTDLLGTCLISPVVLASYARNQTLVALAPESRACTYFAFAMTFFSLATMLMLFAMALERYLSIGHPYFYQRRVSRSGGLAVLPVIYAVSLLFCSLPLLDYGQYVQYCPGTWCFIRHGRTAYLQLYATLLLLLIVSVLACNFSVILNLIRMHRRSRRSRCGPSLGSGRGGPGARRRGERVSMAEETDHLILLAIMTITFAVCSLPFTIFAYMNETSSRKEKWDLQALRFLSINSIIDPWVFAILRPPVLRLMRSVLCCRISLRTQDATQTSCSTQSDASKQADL

Sequence of prostaglandin E receptor EP4 (P35408 whole entry): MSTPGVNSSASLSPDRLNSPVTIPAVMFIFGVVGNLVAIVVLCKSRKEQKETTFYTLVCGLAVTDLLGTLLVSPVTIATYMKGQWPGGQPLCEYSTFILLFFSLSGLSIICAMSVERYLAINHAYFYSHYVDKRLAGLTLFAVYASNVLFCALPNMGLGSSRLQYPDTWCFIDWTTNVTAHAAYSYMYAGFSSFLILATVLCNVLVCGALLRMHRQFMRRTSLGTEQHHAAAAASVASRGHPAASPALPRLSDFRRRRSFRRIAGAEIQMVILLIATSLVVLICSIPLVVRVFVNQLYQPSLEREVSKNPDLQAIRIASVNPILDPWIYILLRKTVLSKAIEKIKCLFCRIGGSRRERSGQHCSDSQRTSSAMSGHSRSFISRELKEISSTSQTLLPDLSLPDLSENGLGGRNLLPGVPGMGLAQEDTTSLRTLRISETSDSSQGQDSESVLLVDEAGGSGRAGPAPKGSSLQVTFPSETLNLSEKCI

CO[C@@H]1[C@@H](O)[C@H](O[C@@H]2[C@@H](O)[C@H](O[C@H]3[C@H](O)[C@@H](O[C@@H]4OC[C@@H](O)[C@H](O)[C@H]4O)[C@H](O[C@H]4[C@H](OC5CC[C@]6(C)[C@H]7CCC89C(=O)O[C@@](C)(CCCC(C)C)C8[C@@H](OC(C)=O)C[C@@]9(C)C7=CC[C@H]6C5(C)C)OC[C@@H](OS(=O)(=O)O)[C@@H]4O)O[C@@H]3C)OC[C@H]2O)O[C@H](CO)[C@H]1O (some centres unmarked) [FA, Frondoside A]
IC50 [1]: ~3.7 µM
IC50 [2]: 16.5 µM
